Data as given in PubChem BioAssay (NCI).
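GI50 marks 50% less growth. At the TGI there is no net growth.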

Legend:
Experiment in all cases: NCI tumour cell line growth inhibition, 384-well format
OVCAR-5 ovarian = test system: OVCAR-5 ovarian
NCI-H322M lung = test system: NCI-H322M lung
786-0 renal = test system: 786-0 renal
U251 glioblastoma = test system: U251 glioblastoma
OVCAR-3 ovarian = test system: OVCAR-3 ovarian
SW-620 colon = test system: SW-620 colon
NCI-H460 NSCLC = test system: NCI-H460 NSCLC
EKVX NSCLC = test system: EKVX NSCLC
NCI-H23 lung = test system: NCI-H23 lung
MDA-MB-435 melanoma = test system: MDA-MB-435 melanoma
LOX IMVI melanoma = test system: LOX IMVI melanoma
HCT-15 colon = test system: HCT-15 colon
HCC-2998 colon = test system: HCC-2998 colon
COLO 205 colon = test system: COLO 205 colon
HL-60(TB) leukemia = test system: HL-60(TB) leukemia
RXF 393 renal = test system: RXF 393 renal
HS 578T breast = test system: HS 578T breast
ACHN renal = test system: ACHN renal
A498 renal = test system: A498 renal
NCI-H226 lung = test system: NCI-H226 lung
PC-3 prostate = test system: PC-3 prostate
HT29 colon = test system: HT29 colon
HCT-116 colon = test system: HCT-116 colon
SN12C renal = test system: SN12C renal
SR leukemia = test system: SR leukemia
SK-MEL-5 melanoma = test system: SK-MEL-5 melanoma
MDA-MB-231 breast = test system: MDA-MB-231 breast
NCI-H522 lung = test system: NCI-H522 lung
UO-31 renal = test system: UO-31 renal
SF-268 CNS = test system: SF-268 CNS
KM12 colon = test system: KM12 colon
MDA-MB-468 breast = test system: MDA-MB-468 breast
CCRF-CEM leukemia = test system: CCRF-CEM leukemia
SF-295 CNS = test system: SF-295 CNS
TK-10 renal = test system: TK-10 renal
IGROV1 ovarian = test system: IGROV1 ovarian
SK-MEL-28 melanoma = test system: SK-MEL-28 melanoma
M14 melanoma = test system: M14 melanoma
SF-539 CNS = test system: SF-539 CNS
OVCAR-8 ovarian = test system: OVCAR-8 ovarian
BT-549 breast = test system: BT-549 breast
MCF7 breast = test system: MCF7 breast
OVCAR-4 ovarian = test system: OVCAR-4 ovarian
K-562 leukemia = test system: K-562 leukemia
CAKI-1 renal = test system: CAKI-1 renal
RPMI-8226 leukemia = test system: RPMI-8226 leukemia
A549 NSCLC = test system: A549 NSCLC
MOLT-4 leukemia = test system: MOLT-4 leukemia
SNB-19 CNS = test system: SNB-19 CNS
DU-145 prostate = test system: DU-145 prostate
UACC-257 melanoma = test system: UACC-257 melanoma
SK-OV-3 ovarian = test system: SK-OV-3 ovarian
NCI/ADR-RES ovarian = test system: NCI/ADR-RES ovarian
HOP-62 NSCLC = test system: HOP-62 NSCLC
HOP-92 NSCLC = test system: HOP-92 NSCLC
MALME-3M melanoma = test system: MALME-3M melanoma
UACC-62 melanoma = test system: UACC-62 melanoma
SNB-75 CNS = test system: SNB-75 CNS
T-47D breast = test system: T-47D breast

O=C(Cc1ccc(-c2ccc(OCCN3CCOCC3)cc2)cn1)NCc1ccccc1
GI50 (OVCAR-5 ovarian): 80 nM | TGI (OVCAR-5 ovarian): > 100000 nM | GI50 (NCI-H322M lung): 38.1 nM | TGI (NCI-H322M lung): 71600 nM | GI50 ([…]-0 renal): 32.3 nM | TGI (786-0 renal): 220 nM | GI50 (U251 glioblastoma): 32 nM | TGI (U251 glioblastoma): 150 nM | GI50 (OVCAR-3 ovarian): 17.4 nM | TGI (OVCAR-3 ovarian): 41.7 nM | GI50 (SW-620 colon): 30.7 nM | TGI (SW-620 colon): > 100000 nM | GI50 (NCI-H460 NSCLC): 20.2 nM | TGI (NCI-H460 NSCLC): 45.4 nM | GI50 (EKVX NSCLC): 42.4 nM | TGI (EKVX NSCLC): 99400 nM | GI50 (NCI-H23 lung): 22.8 nM | TGI (NCI-H23 lung): 60.3 nM | GI50 (MDA-MB-435 melanoma): 15.1 nM | TGI (MDA-MB-435 melanoma): 30.7 nM | GI50 (LOX IMVI melanoma): 49.8 nM | TGI (LOX IMVI melanoma): 298 nM | GI50 (HCT-15 colon): 32.1 nM | TGI (HCT-15 colon): 163 nM | GI50 (HCC-2998 colon): 20.4 nM | TGI (HCC-2998 colon): 133 nM | GI50 (COLO 205 colon): 16.3 nM | TGI (COLO 205 colon): 34.5 nM | GI50 (HL-60(TB) leukemia): 16.1 nM | TGI (HL-60(TB) leukemia): 29.7 nM | GI50 (RXF 393 renal): 17.5 nM | TGI (RXF 393 renal): 39.7 nM | GI50 (HS 578T breast): 18.6 nM | TGI (HS 578T breast): 38.9 nM | GI50 (ACHN renal): 80.1 nM | TGI (ACHN renal): 45100 nM | GI50 (A498 renal): 31.8 nM | TGI (A498 renal): 625 nM | GI50 (NCI-H226 lung): 34.6 nM | TGI (NCI-H226 lung): 220 nM | GI50 (PC-3 prostate): 34.5 nM | TGI (PC-3 prostate): > 100000 nM | GI50 (HT29 colon): 28.3 nM | TGI (HT29 colon): > 100000 nM | GI50 (HCT-116 colon): 31.8 nM | TGI (HCT-116 colon): 709 nM | GI50 (SN12C renal): 38.9 nM | TGI (SN12C renal): 16600 nM | GI50 (SR leukemia): 12.3 nM | TGI (SR leukemia): 25.6 nM | GI50 (SK-MEL-5 melanoma): 20.3 nM | TGI (SK-MEL-5 melanoma): 46.6 nM | GI50 (MDA-MB-231 breast): 53.2 nM | TGI (MDA-MB-231 breast): > 100000 nM | GI50 (NCI-H522 lung): 17.6 nM | TGI (NCI-H522 lung): 44.9 nM | GI50 (UO-31 renal): 66.5 nM | TGI (UO-31 renal): > 100000 nM | GI50 (SF-268 CNS): 35.2 nM | TGI (SF-268 CNS): 513 nM | GI50 (KM12 colon): 30 nM | TGI (KM12 colon): 2010 nM | GI50 (MDA-MB-468 breast): 15.6 nM | TGI (MDA-MB-468 breast): 30.6 nM | GI50 (CCRF-CEM leukemia): 18.4 nM | TGI (CCRF-CEM leukemia): 33.3 nM | GI50 (SF-295 CNS): 15.7 nM | TGI (SF-295 CNS): 38 nM | GI50 (TK-10 renal): 39.9 nM | TGI (TK-10 renal): 45900 nM | GI50 (IGROV1 ovarian): 61.2 nM | TGI (IGROV1 ovarian): 54400 nM | GI50 (SK-MEL-28 melanoma): 38.6 nM | TGI (SK-MEL-28 melanoma): > 100000 nM | GI50 (M14 melanoma): 18.5 nM | TGI (M14 melanoma): 42.2 nM | GI50 (SF-539 CNS): 21.4 nM | TGI (SF-539 CNS): 53.7 nM | GI50 (OVCAR-8 ovarian): 31.4 nM | TGI (OVCAR-8 ovarian): 134 nM | GI50 (BT-549 breast): 28.3 nM | TGI (BT-549 breast): 179 nM | GI50 (MCF7 breast): 49.9 nM | TGI (MCF7 breast): 7190 nM | GI50 (OVCAR-4 ovarian): 41.1 nM | TGI (OVCAR-4 ovarian): 39700 nM | GI50 (K-562 leukemia): 19.8 nM | TGI (K-562 leukemia): 54.1 nM | GI50 (CAKI-1 renal): 40.1 nM | TGI (CAKI-1 renal): > 100000 nM | GI50 (RPMI-8226 leukemia): 14.2 nM | TGI (RPMI-8226 leukemia): 27.7 nM | GI50 (A549 NSCLC): 50.2 nM | TGI (A549 NSCLC): > 100000 nM | GI50 (MOLT-4 leukemia): 15.3 nM | TGI (MOLT-4 leukemia): 29.8 nM | GI50 (SNB-19 CNS): 41.3 nM | TGI (SNB-19 CNS): 3110 nM | GI50 (DU-145 prostate): 30.2 nM | TGI (DU-145 prostate): 174 nM | GI50 (UACC-257 melanoma): 45.7 nM | TGI (UACC-257 melanoma): 43700 nM | GI50 (SK-OV-3 ovarian): 32.7 nM | TGI (SK-OV-3 ovarian): 2670 nM | GI50 (NCI/ADR-RES ovarian): 17.7 nM | TGI (NCI/ADR-RES ovarian): 39.3 nM | GI50 (HOP-62 NSCLC): 29.8 nM | TGI (HOP-62 NSCLC): 3420 nM | GI50 (HOP-92 NSCLC): 38.1 nM | TGI (HOP-92 NSCLC): 2950 nM

O=c1[nH]c(=O)n(C2CC(O)C(CO)O2)cc1F (configuration not stated)
GI50 (OVCAR-5 ovarian): 321 nM | GI50 (NCI-H322M lung): 345 nM | GI50 ([…]-0 renal): 69.9 nM | GI50 (MALME-3M melanoma): 3990 nM | GI50 (U251 glioblastoma): 112 nM | GI50 (SW-620 colon): 28.7 nM | GI50 (NCI-H23 lung): 112 nM | GI50 (MDA-MB-435 melanoma): 1380 nM | GI50 (LOX IMVI melanoma): 35.4 nM | GI50 (HCT-15 colon): 55.1 nM | GI50 (UACC-62 melanoma): 177 nM | GI50 (HL-60(TB) leukemia): 25.5 nM | TGI (HL-60(TB) leukemia): 115 nM | GI50 (RXF 393 renal): 2920 nM | TGI (RXF 393 renal): 25900 nM | GI50 (HS 578T breast): 28.2 nM | TGI (HS 578T breast): 171 nM | GI50 (ACHN renal): 30.2 nM | TGI (A498 renal): 59500 nM | GI50 (PC-3 prostate): 90.4 nM | GI50 (HT29 colon): 53.9 nM | GI50 (HCT-116 colon): 52.9 nM | TGI (HCT-116 colon): 40600 nM | GI50 (SN12C renal): 28.9 nM | TGI (SN12C renal): 238 nM | GI50 (MDA-MB-231 breast): 444 nM | GI50 (SNB-75 CNS): 16.9 nM | GI50 (UO-31 renal): 26.1 nM | GI50 (SF-268 CNS): 13 nM | GI50 (KM12 colon): 844 nM | GI50 (MDA-MB-468 breast): 13.7 nM | TGI (MDA-MB-468 breast): 53.7 nM | GI50 (CCRF-CEM leukemia): 23.8 nM | TGI (CCRF-CEM leukemia): 97.2 nM | GI50 (SF-295 CNS): 13.2 nM | TGI (SF-295 CNS): 53.2 nM | GI50 (TK-10 renal): 721 nM | GI50 (IGROV1 ovarian): 559 nM | GI50 (SK-MEL-28 melanoma): 101 nM | TGI (SK-MEL-28 melanoma): 3610 nM | GI50 (M14 melanoma): 104 nM | GI50 (SF-539 CNS): 11.2 nM | TGI (SF-539 CNS): 102 nM | GI50 (OVCAR-8 ovarian): 79.8 nM | TGI (BT-549 breast): 2780 nM | GI50 (OVCAR-4 ovarian): 27400 nM | GI50 (K-562 leukemia): 351 nM | TGI (K-562 leukemia): 9400 nM | GI50 (CAKI-1 renal): 69.5 nM | GI50 (T-47D breast): 11500 nM | GI50 (A549 NSCLC): 31.8 nM | TGI (MOLT-4 leukemia): 15.7 nM | GI50 (SNB-19 CNS): 39.4 nM | GI50 (DU-145 prostate): 35.9 nM | GI50 (SK-OV-3 ovarian): 112 nM | GI50 (NCI/ADR-RES ovarian): 214 nM | GI50 (HOP-92 NSCLC): 2480 nM
